Results taken from patent US20190038597A1, “PREVENTION OF VASCULAR AND CARDIAC FIBROSIS VIA IRE1ALPHA INHIBITION” (McMaster University, priority 2017, published 2019).

Assays:
VSMCs = assay: Picro-Sirius Red assay of collagen synthesis in VSMCs; format: cell-based, rat
Procedure: (§1) VSMCs were cultured in DMEM/F12 containing 1% FBS. Confluent cells were treated with L-ascorbic acid-2-phosphate (100 μg/ml) and either TGF-β1 (5 ng/ml) or Ang II (1 μM). (A) Agarose gel for assessment of TGF-β1-induced XBP1 splicing in VSMCs after 24 h. (B) Picro-Sirius Red assay for measurement of collagen deposition induced by combined TGF-β1 and AA2P treatment after 72 h, and inhibition by 4μ8c and STF-083010. (C) Western blot for assessment of collagen chaperone expression after treatment of TGF-β1 and 4μ8c for 48 h. *, p<0.05. (D) Measurement of Ang II-induced collagen production and inhibition by 4μ8c and STF-083010 after 72 h.
VSMCs were isolated from the aortas of 5-week old WKY rats using the explant method^29. The thoracic aorta was removed from the animal and placed in ice-cold 5× Antibiotics-Antimycotics solution (ThermoFisher). The adventitia was gently removed and the aorta was cut longitudinally. The endothelial layer was removed by gentle scraping with forceps. The aorta was cut into 3 mm^2 squares and placed on a 6 well plate in DMEM/F12 medium containing 10% fetal bovine serum (FBS). Explants were incubated undisturbed in a 5% CO2 incubator at 37° C. for 1 week and then passaged. Sprague-Dawley renal fibroblasts were purchased (Cell Biologics) and cultured in low glucose DMEM/F12 medium containing 10% FBS, streptomycin (100 μgimp, and penicillin (100 U/ml, Invitrogen, Burlington, ON). Cells between passages 5 and 10 were used for experiments. Cells were cultured in medium containing 1% FBS overnight before treatment.
Collagen synthesis was measured using a Picro-Sirius Red-based assay as previously described^30. Briefly, cells cultured on a 96 well plate were fixed in methanol for 10 minutes at −20° C. Cells were washed once with PBS and incubated with Picrosirius Red stain (0.1% Direct Red 80 in saturated picric acid) for 1 h at room temperature. After the staining solution was removed, the cells were washed three times with 0.1% acetic acid and then imaged. The dye was then eluted with 0.1 N NaOH for 10 minutes on a rocking platform. Absorbance at 540 nm was measured using a Spectramax Plus Microplate Reader (Molecular Devices).
Cells were co-treated with either 4μ8c or S′TF-083010 to inhibit IRE1α endonuclease activity. TGF-β1 induced XBP1 splicing after 24 h, which was blocked by co-treatment with 4μ8c (FIG. 2A). Collagen production was measured using a Picro-Sirius Red-based colorimetric assay. TGF-β1 combined with AA2P induced collagen synthesis in the VSMCs, which was inhibited by co-treatment with 4μ8c or STF-083010 (FIG. 2B).

IRE1α endonuclease = target: T1, IRE1α endonuclease (Rattus norvegicus, UniProt A0A4Y1YQ52); assay: XBP1 splicing assay in VSMCs; format: cell-based; details: tunicamycin (1 μg/ml) 6 h, 4μ8c 30 μM or STF-083010 60 μM, FIG. 1A
T1 construct: endogenous in cells; host or cells: primary aortic vascular smooth muscle cells from 5-week old WKY rats
Procedure: (§2) VSMCs were treated with tunicamycin (1 μg/ml) and either 4μ8c (30 μM) or STF-083010 (60 μM) for 6 h or 24 h. (A) Agarose gel for assessment of XBP1 splicing after 6 h of treatment with tunicamycin and densitometric quantification. (B) Western blot for assessment of ER chaperone expression after 24 h tunicamycin treatment with or without inhibition of IRE1α by 4μ8c. Data is presented as mean±SEM. *, p<0.05 vs. Vehicle; #, p<0.05 vs. Tm.
as §1
VSMCs were isolated from the aortas of 5-week old WKY rats using the explant method^29. The thoracic aorta was removed from the animal and placed in ice-cold 5× Antibiotics-Antimycotics solution (ThermoFisher). The adventitia was gently removed and the aorta was cut longitudinally. The endothelial layer was removed by gentle scraping with forceps. […]
Total RNA was extracted from cultured cells and rat tissues using the TRIzol reagent (ThermoFisher) according to manufacturer's instructions. RNA concentration and purity were measured using a Nanodrop ND-1000 spectrophotometer (NanoDrop Technologies, Inc.). […]
Aortic VSMCs were isolated from normotensive WKY rats and used for in vitro experiments. […] To test the ability of these compounds to block the IRE1α endonuclease, XBP1 splicing was measured in VSMCs treated with the ER stress inducer tunicamycin for 6 h with or without pre-treatment by 4μ8c or STF-083010. […]

GRP78, GRP94 and PDI = assay: Western blot of ER chaperone / ER stress marker expression in VSMCs; format: cell-based, rat; details: 24 h tunicamycin treatment, FIG. 1B
Procedure: as §2, §1
VSMCs were isolated from the aortas of 5-week old WKY rats using the explant method^29. The thoracic aorta was removed from the animal and placed in ice-cold 5× Antibiotics-Antimycotics solution (ThermoFisher). The adventitia was gently removed and the aorta was cut longitudinally. The endothelial layer was removed by gentle scraping with forceps. The aorta was cut into 3 mm^2 squares and placed on a 6 well plate in DMEM/F12 medium containing 10% fetal bovine serum (FBS). Explants were incubated undisturbed in a 5% CO2 incubator at 37° C. for 1 week and then passaged. […]
Cells were lysed in 1× Laemmli buffer and protein content was quantified using the BioRad DC Protein Assay (BioRad, Mississauga, Canada). […]

T1 sequence (A0A4Y1YQ52 21-977): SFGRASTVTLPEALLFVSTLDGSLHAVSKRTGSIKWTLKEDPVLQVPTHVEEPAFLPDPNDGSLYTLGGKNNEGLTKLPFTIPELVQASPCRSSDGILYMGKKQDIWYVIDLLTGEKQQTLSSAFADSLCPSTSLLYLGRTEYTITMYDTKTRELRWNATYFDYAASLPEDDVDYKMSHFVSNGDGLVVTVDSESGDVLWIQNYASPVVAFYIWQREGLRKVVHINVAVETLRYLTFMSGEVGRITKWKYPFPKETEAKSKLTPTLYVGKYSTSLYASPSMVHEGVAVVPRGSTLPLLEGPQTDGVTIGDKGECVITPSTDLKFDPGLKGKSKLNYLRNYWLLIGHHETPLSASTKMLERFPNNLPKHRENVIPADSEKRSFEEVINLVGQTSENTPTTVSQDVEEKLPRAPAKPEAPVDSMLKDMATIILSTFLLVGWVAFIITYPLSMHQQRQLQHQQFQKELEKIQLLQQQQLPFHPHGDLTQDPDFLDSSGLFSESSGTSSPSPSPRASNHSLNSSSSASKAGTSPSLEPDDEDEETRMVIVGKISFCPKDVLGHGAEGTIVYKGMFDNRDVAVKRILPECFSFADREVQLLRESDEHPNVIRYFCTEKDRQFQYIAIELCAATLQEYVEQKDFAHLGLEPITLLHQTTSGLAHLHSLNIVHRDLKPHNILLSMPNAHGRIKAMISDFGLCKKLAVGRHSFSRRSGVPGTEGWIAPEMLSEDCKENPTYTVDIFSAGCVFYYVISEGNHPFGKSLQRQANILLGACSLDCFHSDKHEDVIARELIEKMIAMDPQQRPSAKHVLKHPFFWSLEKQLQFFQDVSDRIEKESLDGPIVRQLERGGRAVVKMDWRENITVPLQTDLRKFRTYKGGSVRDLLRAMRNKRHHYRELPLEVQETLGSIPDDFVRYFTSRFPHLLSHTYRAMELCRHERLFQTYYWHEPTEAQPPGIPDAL

spliced-to-unspliced XBP1 ratio (IRE1α endonuclease): reduced
Compound: O=S(=O)(/N=C/c1c(O)ccc2ccccc12)c1cccs1 [STF-083010, N-[(2-Hydroxy-1-naphthyl)methylene]-2-thiophenesulfonamide]
collagen synthesis induced by TGF-β1 combined with AA2P (VSMCs; 72 h, co-treatment, FIG. 2B): inhibited | collagen synthesis induced by Ang II (VSMCs; Ang II (1 μM) 72 h, FIG. 2D): inhibition | elevated expression levels of ER stress markers GRP78, GRP94 and PDI (GRP78, GRP94 and PDI): reduced
